pIC50: −log10 of the molar value. Converted amounts (≈) assume the structure as drawn. Read-outs that look alike come from different tables or passages of the source.
Key:
K562 cells [1] = experiment: Cell viability assay (trypan blue exclusion or MTT); type: cell-based, human
Source text: (§1) MCF-7/HER2 and MCF-7/EV are HER2 and empty vector-transfected MCF-7 cells obtained from Prof. Yoshio Inouye (Department of Surgery, Toho University School of Medicine, Japan) through Prof. Masashi Kawaichi (Laboratory of Gene Function in Animals, NAIST, Japan). The cells of 4T1, NIH-3T3, and T47D were kindly provided by Prof. Masashi Kawaichi (Laboratory of Gene Function in Animals, NAIST, Japan). K652 cells are the collection from the Laboratory of Tumor Cell Biology, Nara Institute of Science and Technology, Japan. HCC1954 and Caco2 cell lines were given by Dr. dr. Muhammad Hasan Bashari (Faculty of Medicine, Universitas Padjajaran, Indonesia). WiDr cell line was obtained from the Faculty of Medicine, Public Health, and Nursing Universitas Gadjah Mada, Indonesia. […]
(§2) Cells were grown in 24 or 96-well microplate and then cultured for 24 h. […] After treatment, viable cells were enumerated using the trypan blue exclusion or quantified under MTT assay. […]
(§3) Molecular docking results were validated by determining the RMSD value of conformation bearing the lowest docking score representing the ∆G (kkal/mol). […] Cytotoxic potencies against several cell lines were statistically analyzed based on the IC50 values through linear regression with a P value of […].

WiDr cells = experiment: as above; type: cell-based; settings: Homo sapiens, 24 hours treatment, read-out: IC 50 value
Source text: (§4) MCF-7/HER2 and MCF-7/EV are HER2 and empty vector-transfected MCF-7 cells obtained from Prof. Yoshio Inouye (Department of Surgery, Toho University School of Medicine, Japan) through Prof. Masashi Kawaichi (Laboratory of Gene Function in Animals, NAIST, Japan). The cells of 4T1, NIH-3T3, and T47D were kindly provided by Prof. Masashi Kawaichi (Laboratory of Gene Function in Animals, NAIST, Japan). K652 cells are the collection from the Laboratory of Tumor Cell Biology, Nara Institute of Science and Technology, Japan. HCC1954 and Caco2 cell lines were given by Dr. dr. Muhammad Hasan Bashari (Faculty of Medicine, Universitas Padjajaran, Indonesia). WiDr cell line was obtained from the Faculty of Medicine, Public Health, and Nursing Universitas Gadjah Mada, Indonesia. Briefly, MCF-7/HER2, MCF-7, NIH-3T3, T47D, MCF-7/EV, and 4T1 cells were cultured in Dulbecco’s Modified Eagles Medium (DMEM) high glucose (Gibco, USA), whereas HCC1954, Caco2, WiDr, K562 cells were grown in Rosewell Park Memorial Institute (RPMI) Medium. Both were supplemented with 10% (v/v) fetal bovine serum (Gibco, USA), HEPES (Sigma, USA), sodium bicarbonate (Sigma, USA), 150 IU/mL penicillin and 150 µg/mL streptomycin (Gibco) and 1.25 µg/mL amphotericin B (Gibco, USA). The cells were maintained at 37 °C with 5% CO2 in a humidified atmosphere.
(§5) Cells were grown in 24 or 96-well microplate and then cultured for 24 h. Subsequently, cells were treated with PGV-1 or CCA-1.1 at concentration series up to 10 µM, except for NIH-3T3 up to 100 µM and incubated for 24 hours. Untreated cells were used as control. After treatment, viable cells were enumerated using the trypan blue exclusion or quantified under MTT assay. The viable cells were represented as % cell viability vs. concentration of the sample, and the IC50 value or the concentration that inhibits 50% of cell growth was calculated.
(§6) Molecular docking results were validated by determining the RMSD value of conformation bearing the lowest docking score representing the ∆G (kkal/mol). The validity of the molecular docking method was represented as RMSD value < 2. Cytotoxic potencies against several cell lines were statistically analyzed based on the IC50 values through linear regression with a P value of […].

T47D cells = experiment: as above; type: cell-based; settings: Homo sapiens, 24 hours treatment, read-out: IC 50 value
Source text: as §4, §5, §6

Caco2 cells = experiment: as above; type: cell-based; settings: Homo sapiens, Caco-2; Caco2, 24 hours treatment; read-out: IC 50 value
Source text: as §4, §5, §6

4T1 cells [2] = experiment: as above; type: cell-based; settings: Mus musculus; 4T1, 24 hours treatment; read-out: IC 50 value
Source text: as §4, §5, §6

NIH-3T3 cells = experiment: as above; type: cell-based; settings: Mus musculus, NIH3T3; NIH-3T3 (non-cancerous), concentrations up to 100 µM, 24 hours; read-out: IC 50 value
Source text: as §4, §5, §6

MCF-7/EV cells = experiment: as above; type: cell-based; settings: Homo sapiens, MCF7, 24 hours treatment, read-out: IC 50 value
Source text: as §4, §5, §6

MCF-7 cells [3] = experiment: as above; type: cell-based; settings: Homo sapiens, MCF7; MCF-7, 24 hours treatment; read-out: IC 50 value
Source text: as §4, §5, §6

MCF-7/HER2 cells = experiment: as above; type: cell-based; settings: Homo sapiens, MCF7; MCF-7/HER2, 24 hours treatment; read-out: IC 50 value
Source text: as §4, §5, §6

HCC1954 cells = experiment: as above; type: cell-based; settings: Homo sapiens; HCC1954, 24 hours treatment; read-out: IC 50 value
Source text: as §4, §5, §6

[4] = test system: several cancer cell lines; experiment: Cytotoxic assay on several cancer cell lines (summary statement); type: cell-based; settings: several cancer cell lines (Table 3)
Source text: as §1, §2, §3

[5] = Dissolution and stability test in buffer solution; type: physicochemical; settings: for Appearance of solution after storage for 48 hours: 100 µM, room temperature; for Absorbance change (stability) up to 3 hours: aqueous solution, light exposure, ambient temperature, especially pH 1.0
Method: Each solution in the respected buffer was then evaluated for its stability at ambient temperature and light exposure. It measured the absorbance change at 428, 416, and 404 nm, subsequently over a time-course using a UV-1800 spectrophotometer (Shimadzu, Japan).

K562 cells [6] = test system: K562 cells; design: method as in PMID 31619723; settings: read-out: IC 50 value; cited from earlier work
MCF-7 cells [7] = test system: MCF-7 cells; design: method as in PMID 31548601; settings: read-out: IC 50 value; cited from earlier work
4T1 cells [8] = settings: read-out: IC 50 value; cited from earlier work
[9] = aqueous; cited from earlier work

Row | pIC50 (T47D cells) | pIC50 (Caco2 cells) | pIC50 (MCF-7/EV cells) | pIC50 (MCF-7/HER2 cells) | pIC50 (HCC1954 cells) | Appearance of solution after storage for 48 hours [5] | Structure (SMILES) | pIC50 (WiDr cells) | pIC50 (NIH-3T3 cells) | pIC50 [4] | Absorbance change (stability) up to 3 hours [5] | also measured
1 | 5.15 | 5.30 | 5.10 | 5.30 | 5.22 | still looked clear | Cc1cc(C=C2CCC(=Cc3cc(C)c(O)c(C)c3)C2O)cc(C)c1O (centres unmarked) [CCA-1.1, 2,5-bis(4-hydroxy-3,5-dimethylbenzylidene)cyclopentanol] | 5.30 | < 4.30 | > 5.00 | unchanged absorbance up to 3 hours | pIC50 (K562 cells [1]; Homo sapiens, K562, 24 hours treatment, read-out: IC 50 value): 6.53; Cytotoxic potency relative to PGV-1 (K562 cells [1]; K562): twice stronger than PGV-1; pIC50 (4T1 cells [2]): 5.52; pIC50 (MCF-7 cells [3]): > 5.00; Solubility compared at a concentration of 100 µM ([5]; distilled water, buffer pH 1.0 and pH 7.4, 100 µM): more soluble than PGV-1 and curcumin; Solubility relative to PGV-1 ([5]; pH 1.0, 7.4, distilled water, observations up to 48 hours): two times more soluble than PGV-1
2 | 5.10 | 4.92 | 5.10 | 5.15 | 5.52 | appeared with some sediment or crystal | Cc1cc(C=C2CCC(=Cc3cc(C)c(O)c(C)c3)C2=O)cc(C)c1O [PGV-1, 2,5-bis(4-hydroxy-3,5-dimethylbenzylidene)cyclopentanone] | < 5.00 | < 4.30 | > 5.00 | tended to decrease the absorbance at 3 hours | pIC50 (K562 cells [6]): 6.35; pIC50 (MCF-7 cells [7]): 5.22; pIC50 (4T1 cells [8]): 5.40; Appearance of solution at 50 µM ([5]; 50 µM (data not shown)): appeared clear
3 |  |  |  |  |  |  | COc1cc(C=CC(=O)CC(=O)C=Cc2ccc(O)c(OC)c2)ccc1O [curcumin, 1,7-bis(4-hydroxy-3-methoxyphenyl)-1,6-heptadiene-3,5-dione] |  |  |  | tended to decrease the absorbance at 3 hours | Solubility [9]: 40 µM (≈ 14.7 µg/mL)

Source: publication PMC9348534 (Advanced Pharmaceutical Bulletin, 2021)
